Literature values in patent US20140323416A1, “5-METHYLDIHYDROMORPHONE COMPOUNDS FOR TREATMENT OF PAIN” (priority 2013, published 2014).

SMILES: CN1CC[C@]23c4c5ccc(O)c4O[C@@]2(C)C(=O)CC[C@H]3[C@H]1C5 [Metopon, metopon]
- bioavailability (in vivo): low bioavailability
- emetic action (in vivo): nearly devoid of emetic action
- analgesic effectiveness (relative to morphine): at least double to that of morphine
- duration of action (relative to morphine): about equal to that of morphine
- physical dependence (relative to morphine): built up more slowly than with morphine
- potency (relative to morphine): reduced potency relative to morphine
- tolerance (relative to morphine): develop more slowly and to disappear more quickly
- respiratory depression (therapeutic analgesic doses): little or no respiratory depression
- mental dullness (therapeutic analgesic doses, relative to morphine): much less mental dullness than morphine
